Holding throughout (type): functional, cell-based
One assay relates to P388. Kind of assay: Cytotoxicity against mouse P388 cells after 3 days by MTT assay. Particulars: P388, 72 h.
A short description of assay [1]: Cytotoxicity against human KB16 cells after 3 days by MTT assay. As to conditions: KB16, 72 h.
The subject of a further assay is A549. Kind of assay: Cytotoxicity against human A549 cells after 6 days by MTT assay. As to conditions: A549, 144 h.
The next assay relates to HT-29. Kind of assay: Cytotoxicity against human HT-29 cells after 6 days by MTT assay. Particulars: HT-29, 144 h.

Values after ≈ are worked out from the molar mass of the structure shown.

With `CCCCCCCCC(=O)Oc1c(OC)cc2ccnc3c2c1N(C)C=C3`, the IC50 was found to be 0.04 µg/mL (≈ 0.109 µM) with P388, 33 µg/mL (≈ 89.6 µM) in assay [1], 12 µg/mL (≈ 32.6 µM) in the assay on A549 and 3 µg/mL (≈ 8.14 µM) in the assay with HT-29.

With `CCCCCCCCCC(=O)Oc1c(OC)cc2ccnc3c2c1N(C)C=C3`, the IC50 in the assay on P388 turned out to be 0.03 µg/mL (≈ 0.0784 µM); in assay [1], 20 µg/mL (≈ 52.3 µM); in the assay on A549, 6.1 µg/mL (≈ 15.9 µM); in the assay on HT-29, 2.5 µg/mL (≈ 6.54 µM).

Turning to `CCCCCCCCCCCC(=O)Oc1c(OC)cc2ccnc3c2c1N(C)C=C3`, the IC50 in the assay on P388 amounted to 0.03 µg/mL (≈ 0.0731 µM); in assay [1], 20 µg/mL (≈ 48.7 µM); in the assay on A549, 3.7 µg/mL (≈ 9.01 µM); with HT-29 it was 2.5 µg/mL (≈ 6.09 µM).

On to `COc1cc2c3c(ccnc3c1OC)N(C(C)=O)CC2`, for which the concentration for half-maximal inhibition (IC50) amounted to 2.6 µg/mL (≈ 9.55 µM) with P388, 32 µg/mL (≈ 118 µM) in assay [1], 20 µg/mL (≈ 73.4 µM) in the assay with A549 and 17 µg/mL (≈ 62.4 µM) in the assay on HT-29.

Turning to `CCCCCC(=O)N1CCc2cc(OC)c(OC)c3nccc1c23`, the IC50 with P388 is 3.7 µg/mL (≈ 11.3 µM); in assay [1], > 50 µg/mL; in the assay with A549, > 50 µg/mL; with HT-29, > 50 µg/mL.

As to `COc1cc2ccnc3c2c(c1OC(C)=O)N(C)C=C3`, the IC50 is 4.2 µg/mL (≈ 15.5 µM) in the assay on P388, > 50 µg/mL in assay [1], > 50 µg/mL with A549 and > 50 µg/mL with HT-29.

On to `CCCCCCCCCCCCCCCCCC(=O)N1CCc2cc(OC)c(OC)c3nccc1c23`, for which the IC50 in the assay on P388 is 2.7 µg/mL (≈ 5.44 µM); in assay [1], 20 µg/mL (≈ 40.3 µM); in the assay on A549, > 50 µg/mL; in the assay with HT-29, > 50 µg/mL.

In the case of `CCC(=O)Oc1c(OC)cc2ccnc3c2c1N(C)C=C3`, the 50% inhibitory concentration (IC50) with P388 came to 1.4 µg/mL (≈ 4.92 µM); in assay [1], 28 µg/mL (≈ 98.5 µM); in the assay on A549, 18 µg/mL (≈ 63.3 µM); in the assay on HT-29, 13 µg/mL (≈ 45.7 µM).

As to `CCCCCC(=O)Oc1c(OC)cc2ccnc3c2c1N(C)C=C3`, the 50% inhibitory concentration (IC50) with P388 is 0.7 µg/mL (≈ 2.14 µM); in assay [1] it was 33 µg/mL (≈ 101 µM); in the assay on A549, 13 µg/mL (≈ 39.8 µM); with HT-29, 12 µg/mL (≈ 36.8 µM).

Consider `CCCCCCCC(=O)Oc1c(OC)cc2ccnc3c2c1N(C)C=C3`, for which the IC50 in the assay with P388 came to 1.5 µg/mL (≈ 4.23 µM); in assay [1], 15 µg/mL (≈ 42.3 µM); in the assay on A549, 14 µg/mL (≈ 39.5 µM); in the assay with HT-29, 12 µg/mL (≈ 33.9 µM).

In the case of `CCCCCCC(=O)Oc1c(OC)cc2ccnc3c2c1N(C)C=C3`, the IC50 in the assay with P388 was 0.7 µg/mL (≈ 2.06 µM); in assay [1], 38 µg/mL (≈ 112 µM); in the assay on A549, 11 µg/mL (≈ 32.3 µM); in the assay on HT-29, 13 µg/mL (≈ 38.2 µM).

`CCCCC(=O)Oc1c(OC)cc2ccnc3c2c1N(C)C=C3`: the IC50 in the assay on P388 was 1.8 µg/mL (≈ 5.76 µM); in assay [1] it was 35 µg/mL (≈ 112 µM); with A549, 13 µg/mL (≈ 41.6 µM); in the assay on HT-29 it was 9 µg/mL (≈ 28.8 µM).

Take `CCCCCCCCCCCCCCCCCC(=O)Oc1c(OC)cc2ccnc3c2c1N(C)C=C3`: the half-maximal inhibitory concentration (IC50) with P388 was 1.1 µg/mL (≈ 2.22 µM); in assay [1], > 50 µg/mL; in the assay on A549 it was > 50 µg/mL; in the assay with HT-29, 21 µg/mL (≈ 42.4 µM).

In the case of `CCCCCCCCCCCC(=O)N1CCc2cc(OC)c(OC)c3nccc1c23`, the half-maximal inhibitory concentration (IC50) in the assay with P388 was found to be 0.1 µg/mL (≈ 0.242 µM); in assay [1], 7.8 µg/mL (≈ 18.9 µM); in the assay with A549 it was 5.6 µg/mL (≈ 13.6 µM); in the assay on HT-29, 9.6 µg/mL (≈ 23.3 µM).

As to `CCCCCCCCCCCCCC(=O)Oc1c(OC)cc2ccnc3c2c1N(C)C=C3`, the IC50 in the assay on P388 amounted to 0.3 µg/mL (≈ 0.684 µM); in assay [1], 3.3 µg/mL (≈ 7.52 µM); in the assay with A549 it was 5.6 µg/mL (≈ 12.8 µM); in the assay on HT-29 it was 2.7 µg/mL (≈ 6.16 µM).

Regarding `CCCCCCCCCCCCCCCC(=O)Oc1c(OC)cc2ccnc3c2c1N(C)C=C3`, the 50% inhibitory concentration (IC50) with P388 turned out to be 0.1 µg/mL (≈ 0.214 µM); in assay [1] it was 8 µg/mL (≈ 17.1 µM); in the assay on A549, 7.3 µg/mL (≈ 15.6 µM); in the assay on HT-29 it was 9 µg/mL (≈ 19.3 µM).

As to `COc1cc2ccnc3c2c(c1OC)NC=C3` [AAPTAMINE], the IC50 in the assay with P388 was 0.6 µg/mL (≈ 2.63 µM); in assay [1], 3.9 µg/mL (≈ 17.1 µM); in the assay on A549, 2.8 µg/mL (≈ 12.3 µM); with HT-29, 6.9 µg/mL (≈ 30.2 µM).

Consider `COC1=Cc2ccnc3c2C1=C(OC)NC=C3` [AAPTOSINE], for which the IC50 in the assay on A549 and in the assay with HT-29 was > 50 µg/mL throughout.

`COC1=Cc2ccnc3ccnc(c23)C1=O` [DEMETHYLOXY-AAPTAMINE]: the IC50 came out at 0.01 µg/mL (≈ 0.0471 µM) in the assay on P388, 0.1 µg/mL (≈ 0.471 µM) in assay [1] and 0.3 µg/mL (≈ 1.41 µM) in the assay with A549.

As to `COc1cc2c3c(ccnc3c1OC)NCC2` [DIHYDROAAPTAMINE], the concentration for half-maximal inhibition (IC50) worked out at 1.8 µg/mL (≈ 7.82 µM) in the assay with P388, 22 µg/mL (≈ 95.5 µM) in assay [1], 23 µg/mL (≈ 99.9 µM) with A549 and 47 µg/mL (≈ 204 µM) in the assay with HT-29.

For `COc1cc2ccnc3c2c(c1O)N(C)C=C3` [ISOAAPTAMINE], the IC50 in the assay on P388 was found to be 0.04 µg/mL (≈ 0.175 µM); in assay [1], 0.4 µg/mL (≈ 1.75 µM); with A549, 0.3 µg/mL (≈ 1.31 µM); in the assay on HT-29 it was 0.4 µg/mL (≈ 1.75 µM).
